Source: patent US5580757A, “Cloning and expression of biologically active α-galactosidase A as a fusion protein” (The Mount Sinai School of Medicine of the City University …, priority 1994, dated 1996)
Where two headings read alike, the source gives them in different places.

Key:
[1] = molecular target: α-Gal A-Protein A domain E fusion protein (human; Staphylococcus aureus)
[2] = test system: CHO cells secreting recombinant α-Gal A; assay: Effect of glycosylation inhibitors on the secretion of recombinant α-Gal A; assay type: cell-based, Chinese hamster; details: recombinant CHO cultures, FIG. 15; concentration not given
Excerpt: FIG. 15. Effect of glycosylation inhibitors on the secretion of recombinant α-Gal.

[3] = molecular target: recombinant human α-galactosidase A secreted by CHO DG5.3 cells (human)
[4] = molecular target: human α-Gal A purified from plasma (Homo sapiens, UniProt P06280); details: read-out: Km (4-MU-α-D-Gal); cited from earlier work
[5] = molecular target: human α-Gal A purified from spleen (Homo sapiens, UniProt P06280); details: read-out: Km (4-MU-α-D-Gal); cited from earlier work
[6] = molecular target: recombinant human α-galactosidase A secreted by CHO DG5.3 cells (human); remark: listed apart in the source
[7] = molecular target: Sambucus nigra agglutinin (Sambucus nigra); assay: SNA-Sepharose chromatography of secreted enzyme
[8] = substrate: Cc1cc(=O)oc2cc(O[C@H]3O[C@H](CO)[C@H](O)[C@H](O)[C@H]3O)ccc12; assay: purified protein, by the assay type; details: other: recombinant α-Gal A; artificial substrate; pH 4.6; 37.0 °C

Work on Collagenase (enzyme) yielded a % Of Recovered α-Gal A Activity in the IgG column flow-through after collagenase treatment [1] of 89%.

For tunicamycin, the “inhibition of secretion of α-Gal A” value [2] was no more than 80%.

For endoglycosidase F (enzyme), the shift in mobility on SDS-PAGE [3] was 4 kDa.

With `OC[C@H]1NC[C@@H](O)[C@@H](O)[C@@H]1O` [deoxymannojirimycin] the “α-Gal A secretion rate” value [2] was “remains the same as the controls”.

In the case of `Cc1cc(=O)oc2cc(O[C@H]3O[C@H](CO)[C@H](O)[C@H](O)[C@H]3O)ccc12` [4-MU-α-D-galactopyranoside, 4-methylumbelliferyl-α-D-galactopyranoside], the Km [4] is given as 1900 µM and the Km [5] is given as 2500 µM.

For `O[C@H]1[C@H]2[C@H](O)CCCN2C[C@H]1O` [swainsonine], the “α-Gal A secretion rate” value [2] was “remains the same as the controls”.

For `OC[C@H]1NC[C@H](O)[C@@H](O)[C@@H]1O` [deoxynojirimycin], the “α-Gal A secretion rate” value [2] was “remains the same as the controls”.

Molecule “peptide:N-glycosidase F (from UniProt P21163) (enzyme)” has a shift in mobility on SDS-PAGE [6] of 7 kDa.

“recombinant human α-galactosidase A secreted by CHO DG5.3 cells (enzyme)” showed a Percent of Secreted α-Gal A Bound to SNA-Lectin [7] of 5%.

B1: recombinant human α-galactosidase A (α-Gal A), secreted by CHO DG5.3 cells, purified (Homo sapiens) (protein)
chain: LDNGLARTPTMGWLHWERFMCNLDCQEEPDSCISEKLFMEMAELMVSEGWKDAGYEYLCIDDCWMAPQRDSEGRLQADPQRFPHGIRQLANYVHSKGLKLGIYADVGNKTCAGFPGSFGYYDIDAQTFADWGVDLLKFDGCYCDSLENLADGYKHMSLALNRTGRSIVYSCEWPLYMWPFQKPNYTEIRQYCNHWRNFADIDDSWKSIKSILDWTSFNQERIVDVAGPGGWNDPDMLVIGNFGLSWNQQVTQMALWAIMAAPLFMSNDLRHISPQAKALLQDKDVIAINQDPLGKQGYQLRQGDNFEVWERPLSGLAWAVAMINRQEIGGPRSYTIAVASLGKGVACNPACFITQLLPVKRKLGFYEWTSRLRSHINPTGTVLLQLENTMQMSLKDLL
For B1, the Km [8] was 1900 µM.
